According to PubChem BioAssay (NCI):
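1) Cells in 96-well plates. 2) Compound, 48 h, 5 concentrations. 3) Linear interpolation between surrounding doses. 4) Unreached endpoint = highest concentration. Abbreviation: GI50, concentration required for 50% inhibition of growth. TGI: total growth inhibition.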

What was measured:
Experiment in all cases: NCI tumour cell line growth inhibition, 48 h
MDA-MB-231 breast = system: MDA-MB-231 breast
NCI-H522 lung = system: NCI-H522 lung
UO-31 renal = system: UO-31 renal
SNB-75 CNS = system: SNB-75 CNS
OVCAR-8 ovarian = system: OVCAR-8 ovarian
A498 renal = system: A498 renal
CCRF-CEM leukemia = system: CCRF-CEM leukemia
MALME-3M melanoma = system: MALME-3M melanoma
MCF7 breast = system: MCF7 breast
EKVX NSCLC = system: EKVX NSCLC
HOP-62 NSCLC = system: HOP-62 NSCLC
TK-10 renal = system: TK-10 renal
T-47D breast = system: T-47D breast
MOLT-4 leukemia = system: MOLT-4 leukemia
HCT-15 colon = system: HCT-15 colon
MDA-MB-435 = system: MDA-MB-435
PC-3 prostate = system: PC-3 prostate
OVCAR-5 ovarian = system: OVCAR-5 ovarian
SF-539 CNS = system: SF-539 CNS
SR leukemia = system: SR leukemia
RXF 393 renal = system: RXF 393 renal
NCI-H460 lung = system: NCI-H460 lung
SN12C renal = system: SN12C renal
UACC-257 melanoma = system: UACC-257 melanoma
786-0 renal = system: 786-0 renal
K-562 leukemia = system: K-562 leukemia
NCI/ADR-RES ovarian = system: NCI/ADR-RES ovarian
KM12 colon = system: KM12 colon
RPMI-8226 leukemia = system: RPMI-8226 leukemia
SK-MEL-2 melanoma = system: SK-MEL-2 melanoma
LOX IMVI melanoma = system: LOX IMVI melanoma
NCI-H226 lung = system: NCI-H226 lung
CAKI-1 renal = system: CAKI-1 renal
HCT-116 colon = system: HCT-116 colon
UACC-62 melanoma = system: UACC-62 melanoma
U251 CNS = system: U251 CNS
SF-268 CNS = system: SF-268 CNS
SK-OV-3 ovarian = system: SK-OV-3 ovarian
DU-145 prostate = system: DU-145 prostate
HOP-92 NSCLC = system: HOP-92 NSCLC
IGROV1 ovarian = system: IGROV1 ovarian
HS 578T breast = system: HS 578T breast
BT-549 breast = system: BT-549 breast
SF-295 CNS = system: SF-295 CNS
M14 melanoma = system: M14 melanoma
SNB-19 CNS = system: SNB-19 CNS
HCC-2998 colon = system: HCC-2998 colon
OVCAR-4 ovarian = system: OVCAR-4 ovarian
SW-620 colon = system: SW-620 colon
ACHN renal = system: ACHN renal

Compound: N#C/C(=C\c1ccc(-c2ccc(F)cc2)o1)C(=O)Nc1ncc(Cc2ccc(Cl)cc2Cl)s1
- GI50 (MDA-MB-231 breast): 3.67 µM
- TGI (MDA-MB-231 breast): 32.2 µM
- GI50 (NCI-H522 lung): 3.49 µM
- TGI (NCI-H522 lung): 34.6 µM
- GI50 (UO-31 renal): 5 µM
- TGI (UO-31 renal): > 100 µM
- GI50 (SNB-75 CNS): 6.2 µM
- TGI (SNB-75 CNS): 28.4 µM
- GI50 (OVCAR-8 ovarian): 2.94 µM
- TGI (OVCAR-8 ovarian): 16.7 µM
- GI50 (A498 renal): 3.03 µM
- TGI (A498 renal): 22 µM
- GI50 (CCRF-CEM leukemia): 4.23 µM
- TGI (CCRF-CEM leukemia): > 100 µM
- GI50 (MALME-3M melanoma): 2.87 µM
- TGI (MALME-3M melanoma): 9.18 µM
- GI50 (MCF7 breast): 2.21 µM
- TGI (MCF7 breast): 8.67 µM
- GI50 (EKVX NSCLC): 2.32 µM
- TGI (EKVX NSCLC): 6.88 µM
- GI50 (HOP-62 NSCLC): 3.71 µM
- TGI (HOP-62 NSCLC): 16.8 µM
- GI50 (TK-10 renal): 9.27 µM
- TGI (TK-10 renal): 30 µM
- GI50 (T-47D breast): 2.75 µM
- TGI (T-47D breast): 29.8 µM
- GI50 (MOLT-4 leukemia): 5.24 µM
- TGI (MOLT-4 leukemia): > 100 µM
- GI50 (HCT-15 colon): 2.38 µM
- TGI (HCT-15 colon): > 100 µM
- GI50 (MDA-MB-435): 2.95 µM
- TGI (MDA-MB-435): > 100 µM
- GI50 (PC-3 prostate): 2.19 µM
- TGI (PC-3 prostate): 6.04 µM
- GI50 (OVCAR-5 ovarian): 4.06 µM
- TGI (OVCAR-5 ovarian): > 100 µM
- GI50 (SF-539 CNS): 2.95 µM
- TGI (SF-539 CNS): 8.8 µM
- GI50 (SR leukemia): 0.778 µM
- TGI (SR leukemia): 12.2 µM
- GI50 (RXF 393 renal): 2.28 µM
- TGI (RXF 393 renal): 5.78 µM
- GI50 (NCI-H460 lung): 1.76 µM
- TGI (NCI-H460 lung): 3.64 µM
- GI50 (SN12C renal): 2.48 µM
- TGI (SN12C renal): 8.64 µM
- GI50 (UACC-257 melanoma): 4.23 µM
- TGI (UACC-257 melanoma): > 100 µM
- GI50 (786-0 renal): 2.69 µM
- TGI (786-0 renal): 10 µM
- GI50 (K-562 leukemia): 3.48 µM
- TGI (K-562 leukemia): > 100 µM
- GI50 (NCI/ADR-RES ovarian): 3.55 µM
- TGI (NCI/ADR-RES ovarian): > 100 µM
- GI50 (KM12 colon): > 100 µM
- TGI (KM12 colon): > 100 µM
- GI50 (RPMI-8226 leukemia): 4.33 µM
- TGI (RPMI-8226 leukemia): > 100 µM
- GI50 (SK-MEL-2 melanoma): 2.91 µM
- TGI (SK-MEL-2 melanoma): 16 µM
- GI50 (LOX IMVI melanoma): 1.64 µM
- TGI (LOX IMVI melanoma): 3.43 µM
- GI50 (NCI-H226 lung): 2.83 µM
- TGI (NCI-H226 lung): 8.52 µM
- GI50 (CAKI-1 renal): 3.05 µM
- TGI (CAKI-1 renal): 16.7 µM
- GI50 (HCT-116 colon): 2.9 µM
- TGI (HCT-116 colon): 10.9 µM
- GI50 (UACC-62 melanoma): 3.71 µM
- TGI (UACC-62 melanoma): > 100 µM
- GI50 (U251 CNS): 2.04 µM
- TGI (U251 CNS): 4.11 µM
- GI50 (SF-268 CNS): 3.15 µM
- TGI (SF-268 CNS): 22.6 µM
- GI50 (SK-OV-3 ovarian): 8.63 µM
- TGI (SK-OV-3 ovarian): 34.9 µM
- GI50 (DU-145 prostate): 4.19 µM
- TGI (DU-145 prostate): > 100 µM
- GI50 (HOP-92 NSCLC): 2.17 µM
- TGI (HOP-92 NSCLC): 9.16 µM
- GI50 (IGROV1 ovarian): 2.47 µM
- TGI (IGROV1 ovarian): 7.54 µM
- GI50 (HS 578T breast): 3.19 µM
- TGI (HS 578T breast): 27.9 µM
- GI50 (BT-549 breast): 1.98 µM
- TGI (BT-549 breast): 4.65 µM
- GI50 (SF-295 CNS): 1.92 µM
- TGI (SF-295 CNS): 4.27 µM
- GI50 (M14 melanoma): 2.91 µM
- TGI (M14 melanoma): 23.6 µM
- GI50 (SNB-19 CNS): 4.63 µM
- TGI (SNB-19 CNS): 29.5 µM
- GI50 (HCC-2998 colon): 3.36 µM
- TGI (HCC-2998 colon): > 100 µM
- GI50 (OVCAR-4 ovarian): 2.99 µM
- TGI (OVCAR-4 ovarian): 9.23 µM
- GI50 (SW-620 colon): 1.79 µM
- TGI (SW-620 colon): 4.66 µM
- GI50 (ACHN renal): 3.52 µM
- TGI (ACHN renal): 13.9 µM
